Counter-ions that a name gives are not always drawn.
Assays:
male rabbit = test: penis erection experiment in conscious male rabbits; format: in vivo; conditions: for Length of rabbit penis: conscious rabbits, average of 3 rabbits
Procedure: (Bischoff E.; Schneider K, International Journal of Impotence Research, 2001, 13, 230 235)
The hydrochloride of 3,7-dihydropyrrolo[2,3-d]pyrimidin-4-one derivatives was dissolved into water, and injected to conscious-rabbits intravenously (i.v.) (0.1 mg-3 mg/kg). Erection was accessed by comparing the length of penis before and at 0, 30, 60, 90 and 120 minutes after intravenous administration of the above-mentioned agents.

[1] = molecular target: phosphodiesterase 5 (PDE5) (Homo sapiens, UniProt O76074); test: inhibition of phosphodiesterase 5 (SPA technique); format: biochemical
Procedure: The bioactivity inhibiting phosphodiesterase 5 (PDE5) of compounds of formula I was measured cross the reference of methods (Hidaka H, et al Biochim. Biochim. Biophys. Acta, 1976, 429, 485; Kim D-K, et al., Bioorg. Med. Chem. 2001, 9, 3013). The inhibiting activity of PDE5 was determined using SPA technique and the method of chemical fluorescence. The method was as follows: firstly, the reaction time curve and the enzyme concentration curve of PDE5 reaction system were determined by Microplate Scintillation & Luminescence Counter (TopCount Counter), by which the optimal reaction condition was determined. Under the optimized conditions, the inhibition experiments on PDE5 were carried out.

mice = test: acute toxicity in mice; format: in vivo; conditions: single dose
Procedure: Furthermore, none of any obvious sign of adverse acute toxicity is shown for the compounds of this invention tested in rat and dog, both intravenously (i.v.) and orally (p.o.) at up to 3 mg/Kg, has shown. For the situation of mice, no deaths occurred after doses of up to 100 mg/Kg i.v. The LD50 for a single dose of compound I-HCl in mice is 2000 mg/kg.

male rats = test: effect of single administration on the coitus function of male rats; format: in vivo, rat; conditions: 24 mg/kg oral; for the latent period of straddle / the latent period of the coitus / times of straddle / times of the coitus: single administration, 20 min observation, average ± standard deviation
Procedure: After purchasing, the male rat and the estrogenized female rat were kept in the same cage for 2 days, and the male rat would acquire the sexual experiences. Then, the female rat was taken out of the cage, and the experiments began after the male rat stayed alone in a cage for 5 days. Each tested compound was orally administered in a dosage of 24 mg/kg, the positive group was administered with Sildenafil citrate (Viagra) in a dosage of 24 mg/kg, and the control group was administered with saline at the equal volume (0.1 ml/10 g). Fifty minutes after administration, the tested male rats were placed within a observation container (both the diameter and the height of the container were 24 cm), and the male rats adapted the new environment for 5 minutes. After that, two estrogenized female rats were placed into the container. The sexual behavior of the male rats in 20 minutes was observed under the non-interfering condition using Panasonic WVCP410/G monitor, the latent period of straddle, times of straddle, as well as the latent period of the coitus and times of the coitus. All the experiments were carried out at 21-24° C., and completed before 11:00 AM. The comparative results among the compounds of the invention, the blank and the positive control drug Sildenafil citrate were listed in Table 2.

man = conditions: cited from earlier work
[2] = 0 min after i.v. administration (0.1 mg-3 mg/kg)
[3] = 30 min after i.v. administration (0.1 mg-3 mg/kg)
[4] = 60 min after i.v. administration (0.1 mg-3 mg/kg)
[5] = 90 min after i.v. administration (0.1 mg-3 mg/kg)
[6] = 120 min after i.v. administration (0.1 mg-3 mg/kg)

Structure (SMILES) | Length of rabbit penis (male rabbit; [2]) [mm] | Length of rabbit penis (male rabbit; [3]) [mm] | Length of rabbit penis (male rabbit; [4]) [mm] | Length of rabbit penis (male rabbit; [5]) [mm] | Length of rabbit penis (male rabbit; [6]) [mm] | the latent period of straddle (male rats) [min] | the latent period of the coitus (male rats) [min] | times of straddle (male rats) | times of the coitus (male rats) | further results
CCCn1cc(C)c2c(=O)[nH]c(-c3cc(S(=O)(=O)N4CCN(CC)CC4)ccc3OCC)nc21.Cl.Cl [Compound 1-2HCl, 2-[2-ethoxyl-5-(4-ethylpiperazinyl-1-sulfonyl)phenyl]-5-methyl-7-n-propyl-3,7-dihydropyrrolo[2,3-d]pyrimidin-4-one dihydrochloride] | 1.3 | 3.0 | 2.0 | 1.0 | 1.0 | – | – | – | – | –
CCCn1cc(C)c2c(=O)[nH]c(-c3cc(S(=O)(=O)N4CCN(CC)CC4)ccc3OCC)nc21.Cl [Compound 1-HCl, 2-[2-ethoxyl-5-(4-ethylpiperazinyl-1-sulfonyl)phenyl]-5-methyl-7-n-propyl-3,7-dihydropyrrolo[2,3-d]pyrimidin-4-one monohydrochloride] | 8.3 | 5.7 | 5.3 | 2.0 | 1.3 | 2.6 ± 1.13 | 7.1 ± 5.62 | 7.6 ± 2.70 | 13.1 ± 8.77 | inhibiting rate on PDE5 ([1]; concentration 10^−8 mol/L): 65.62%; LD50 (mice): 2000 mg/kg; potential in treatment of functional erectile dysfunction (in words) (male rabbit; rabbit penis erection, i.v.): quick onset and prolonged effectiveness; effect on sexual function compared with Sildenafil citrate (male rats; both groups): stronger than that of the Sildenafil citrate group; times of the coitus compared with positive control group (male rats; versus Sildenafil citrate, p<0.05): much more than that of the positive control group; indexes of sexual function of the rats (in words) (male rats; versus saline): obviously enhanced; latent period of coitus (in words) (male rats; versus saline): remarkably shortened; latent period of straddle (in words) (male rats; versus saline): remarkably shortened; times of the coitus (in words) (male rats; versus saline): obviously increased
CCCn1cc(C)c2c(=O)[nH]c(-c3cc(S(=O)(=O)N4CCN(C)CC4)ccc3OCC)nc21.Cl [Compound 6-2HCl, 2-[2-ethoxyl-5-(4-methylpiperazinyl-1-sulfonyl)phenyl]-5-methyl-7-n-propyl-3,7-dihydropyrrolo[2,3-d]pyrimidin-4-one] | 0.0 | 5.3 | 2.7 | 1.7 | 0.0 | – | – | – | – | –
CCCn1cc(C)c2c(=O)[nH]c(-c3cc(S(=O)(=O)N4CCN(C)CC4)ccc3OCC)nc21.Cl [Compound 6-HCl, 2-[2-ethoxyl-5-(4-methylpiperazinyl-1-sulfonyl)phenyl]-5-methyl-7-n-propyl-3,7-dihydropyrrolo[2,3-d]pyrimidin-4-one] | – | – | – | – | – | 6.4 ± 3.07 | 8.8 ± 5.85 | 8.0 ± 3.93 | 9.0 ± 8.50 | latent period of coitus compared with positive control group (male rats; versus Sildenafil citrate): remarkably shorter than that of the positive control group; indexes of sexual function of the rats (in words) (male rats; versus saline): obviously enhanced
CCCn1cc(C)c2c(=O)[nH]c(-c3cc(S(=O)(=O)N4CCN(C(=O)OCC)CC4)ccc3OCC)nc21.Cl.Cl [Compound 8-2HCl, 2-[2-ethoxyl-5-(4-ethoxylcarbonylpiperazinyl-1-sulfonyl)phenyl]-5-methyl-7-n-propyl-3,7-dihydropyrrolo[2,3-d]pyrimidin-4-one] | 2.7 | 1.7 | 1.3 | 0.7 | 0.0 | – | – | – | – | –
CCCn1cc(C)c2c(=O)[nH]c(-c3cc(S(=O)(=O)N4CCN(Cc5ccccc5)CC4)ccc3OCC)nc21.Cl.Cl [Compound 19-2HCl, 2-[2-ethoxyl-5-(4-benzylpiperazinyl-1-sulfonyl)phenyl]-5-methyl-7-n-propyl-3,7-dihydropyrrolo[2,3-d]pyrimidin-4-one] | 1.7 | 4.0 | 4.3 | 4.0 | 0.0 | – | – | – | – | –
CCCc1nn(C)c2c(=O)[nH]c(-c3cc(S(=O)(=O)N4CCN(C)CC4)ccc3OCC)nc12 [Sildenafil citrate, reference compound] | – | – | – | – | – | 5.0 ± 4.74 | 8.2 ± 4.02 | 12.7 ± 7.18 | 8.2 ± 5.25 | –
CCCc1nn(C)c2c(=O)[nH]c(-c3cc(S(=O)(=O)N4CCN(C)CC4)ccc3OCC)nc12 [sildenafil, reference compound] | – | – | – | – | – | – | – | – | – | inhibition at 0.01 µM ([1]; read-out: inhibiting rate on PDE5): 31.7%; effective rates in treating male sexual organs erectile dysfunction (man): 80%
